The subject of one series is S. aureus MRSA 4591. Put plainly: Microdilution MIC, resistant strain. Particulars: methicilin-resistant strain, 24/48 hours at 37°C.
Series [1] has as its system normal erythroid progenitor cells. Put plainly: CellTiter-Blue Cell Viability Assay. Conditions: 48 hours of incubation. Type of series: cell-based, Human. As for the experimental part:
Human immature erythroid progenitors isolated from umbilical cord blood are cultivated in the StemSpan serum-free medium (StemCell Technologies) in the presence of the stem cell factor (SCF, 100 ng/ml), erythropoetin (EPO, 33.34 nkat/ml) and dexamethasone (1 µmol.l^-1) (Panzenbock et al. 1998). Cells are plated at 25000 cells/well/20 µl in 384-well plates immediately before addition of lipophosphonoxine compound from particular examples. After 48 hours of incubation at 37 °C in 5% CO2 viability is determined by using the commercial CellTiter-Blue® Cell Viability Assay (Promega, Cat.# G8082). The assay is based on the ability of living cells to convert a redox dye (resazurin) into a fluorescent end product (resorufin). […] The homogeneous assay procedure involves adding the single reagent directly to cells cultured in serum-supplemented medium. After an incubation step, data are recorded.
(§1) The fluorescence intensity is measured using the EnVision plate reader (PerkinElmer). Data are analyzed using GraphPad Prism 5.0 statistical software.
For orientation: Resazurin is reduced to fluorescent resorufin, in cell work by metabolically active cells.

The test system of a further series is S.agalactiae. Put plainly: Microdilution MIC, reference strain. Conditions: read after 24/48 hours at 37°C. For orientation: In broth dilution the organism is exposed to a series of concentrations in liquid medium.
Series [2] concerns normal human erythroid progenitor cells. Put plainly: CytoTox-ONE Homogeneous Membrane Integrity Assay (LDH release). The format is cell-based. Particulars: cytotoxicity, CytoToxOne, after 4 hours. As for the experimental part:
Human immature erythroid progenitors isolated from umbilical cord blood are cultivated in the StemSpan serum-free medium (StemCell Technologies) in the presence of the stem cell factor (SCF, 100 ng/ml), erythropoetin (EPO, 33.34 nkat/ml) and dexamethasone (1 µmol.l^-1) (Panzenbock et al. 1998). Cells are plated at 25000 cells/well/20 µl in 384-well plates immediately before addition of lipophosphonoxine compound from particular examples. After 48 hours of incubation at 37 °C in 5% CO2 viability is determined by using the commercial CellTiter-Blue® Cell Viability Assay (Promega, Cat.# G8082). […] After an incubation step, data are recorded.
Cytotoxicity is determined after 4 hours at 37 °C in 5% CO2 using commercial CytoTox-ONE™ Homogeneous Membrane Integrity Assay (Promega, Cat.# G7892), a fluorometric method for estimating the number of non-viable cells present in multiwell plates. […] LDH released into the culture medium is measured with a 10-minute coupled enzymatic assay that results in the conversion of resazurin into a fluorescent resorufin product. The amount of fluorescence produced is proportional to the number of lysed cells.
as §1
For orientation: Release of lactate dehydrogenase indicates damage to the cell membrane.

Another series has as its system S. haemolyticus 16568. Put plainly: Microdilution MIC, resistant strain. Conditions: fluoroquinolone-resistant strain, 24/48 hours at 37°C.
The test system of another series is B. subtilis. Put plainly: Microdilution MIC, reference strain. Conditions: read after 24/48 hours at 37°C.
In the next series the test system is S. epidermidis 8700/B. Put plainly: Microdilution MIC, resistant strain. Particulars: methicilin-resistant strain, 24/48 hours at 37°C.
The next series has as its system E. faecalis CCM 4224. Put plainly: Microdilution MIC, reference strain. Conditions: read after 24/48 hours at 37°C.
The next series relates to E. faecium VanA 419/ana. Put plainly: Microdilution MIC, resistant strain. Particulars: vancomycin-resistant strain, 24/48 hours at 37°C.
For a further series, the system named is cyst formation. Particulars: cited from earlier work.
Series [3] relates to Giardia trophozoite growth. Conditions: cited from earlier work.
The subject of series [4] is Mycobacterium tuberculosis strains. Particulars: drug-susceptible strains, in vitro; cited from earlier work.
The subject of another series is mice. Conditions: mouse, in vivo; cited from earlier work.

In brackets after ≈: the same amount, converted by molar mass.

Description for B. subtilis: (§2) Antimicrobial activity is assessed using the standard microdilution method determining the minimum inhibitory concentration (MIC) of the tested samples leading to inhibition of bacterial growth. Disposable microtitration plates are used for the tests. The samples were diluted in brain heart infusion broth (Himedia, Laboraties Pvt. Ltd., ? eská republika) and Mueller-Hinton broth (HiMedia Laboraties, see above) to yield a concentration range between 200 µg/ml and 1.5625 µg/ml. The plates are inoculated with a standard amount of the tested microbe - the inoculum density in each well is equal to 10^5-6 CFU/ml. The MIC is read after 24/48 hours of incubation at 37°C as the minimum inhibitory concentration of the tested substance that inhibits the growth of the bacterial strains.
(§3) Standard reference bacterial strains (E. faecalis CCM 4224, S. aureus CCM 4223) from the Czech Collection of Microorganisms (CCM), Faculty of Science, Masaryk University Brno, S. agalactiae, B. subtilis, methicilin-resistant S. aureus 4591, fluoroquinolone-resistant S. haemolyticus 16568, vancomycin-resistant E. faecium VanA419/ana and methicilin-resistant S. epidermidis 8700/B strains obtained from the Teaching Hospital Olomouc were used. All tested microorganisms were stored in cryotubes (ITEST plus, Czech Republic) at -80°C.
Description for E. faecalis CCM 4224: as §2, §3
Description for E. faecium VanA 419/ana: as §2
(§4) Standard reference bacterial strains (E. faecalis CCM 4224, S. aureus CCM 4223) from the Czech Collection of Microorganisms (CCM), Faculty of Science, Masaryk University Brno, S. agalactiae, B. subtilis, methicilin-resistant S. aureus 4591, fluoroquinolone-resistant S. haemolyticus 16568, vancomycin-resistant E. faecium VanA419/ana and methicilin-resistant S. epidermidis 8700/B strains obtained from the Teaching Hospital Olomouc were used. All tested microorganisms were stored in cryotubes (ITEST plus, Czech Republic) at -80°C. […]
Description for S. aureus MRSA 4591: as §2, §4
Description for S. epidermidis 8700/B: as §2, §4
Description for S. haemolyticus 16568: as §2, §4
Description for S.agalactiae: as §2, §3

In the case of `CCCCCCCCCCCCCCOP(=O)(CCN1C[C@@H](O)[C@H](O)C1)OC[C@H]1O[C@@H](n2ccc(=O)[nH]c2=O)[C@H](O)[C@@H]1O` (stereo partly drawn) [Example 17, Tetradecyl uridin-5'-yl 2-([3R,4R]-3,4-dihydroxypyrrolidin-l-N-yl)ethylphosphonate], the “MIC S. aureus MRSA 4591” value against S. aureus MRSA 4591 was determined as 25 µg/mL (≈ 39.4 µM). Besides, in [1], the IC50 is 47 µg/mL (≈ 74.2 µM) and the “[Max. safety concentration]” value was determined as 31 µg/mL. The “MIC S.agalactiae” value in the series with S.agalactiae was 6,25 µg/ml. Also, in series [2], the EC50 turned out to be 302 µg/mL (≈ 477 µM) and the “[Max. safety concentration]” value was 125 µg/mL. The “MIC S. haemolyticus 16568” value in the series on S. haemolyticus 16568 was 12,5 µg/ml. Besides, in the series with B. subtilis, the “MIC B. subtilis” value was 6,25 µg/ml. Besides, the “MIC S. epidermidis 8700/B” value in the series with S. epidermidis 8700/B was 12,5 µg/ml. In the series on E. faecalis CCM 4224, the “MIC E. faecalis CCM 4224” value is given as 12,5 µg/ml. The “MIC E. faecium VanA 419/ana” value against E. faecium VanA 419/ana was 12,5 µg/ml.

As for `O=c1ccn([C@@H]2O[C@H](COP(=O)(O)CCN3C[C@@H](O)[C@H](O)C3)[C@@H](O)[C@H]2O)c(=O)[nH]1` [phosphonoxin], the cyst formation entry in the series with cyst formation is recorded as “did not specifically inhibit”. The vegetative growth entry in series [3] is listed as “potently inhibited”.

For the molecule “Hexadecyloxypropyl uridin-5'-yl 2-([3R,4S,5S]-3,4-trihydroxypiperidin-1-N-yl)ethyl-phosphonate [Example 12]”, in [1], the IC50 worked out at 141 µg/mL and the “[Max. safety concentration]” value was 62 µg/mL. The “MIC S.agalactiae” value in the series with S.agalactiae is on record as 12,5 µg/ml.

Regarding “Hexadecyloxypropyl uridin-5'-yl 2-([3R,5R]-3,4-dihydroxypiperidin-1-N-yl)ethyl-phosphonate [Example 11]”, in series [1], the IC50 stood at 40 µg/mL and the “[Max. safety concentration]” value came out at 31 µg/mL. Also, the “MIC S.agalactiae” value against S.agalactiae was 6,25 µg/ml. Also, the “MIC B. subtilis” value with B. subtilis is given as 6,25 µg/ml. Besides, the “MIC S. epidermidis 8700/B” value against S. epidermidis 8700/B was 6,25 µg/ml. The “MIC E. faecalis CCM 4224” value in the series with E. faecalis CCM 4224 was 12,5 µg/ml. Also, in the series with E. faecium VanA 419/ana, the “MIC E. faecium VanA 419/ana” value was 6,25 µg/ml.

As to “Hexadecyloxypropyl uridin-5'-yl 2-([3R,5R]-3,4-dihydroxypiperidin-1-N-yl)ethylphosphonate [Example 13]”, in series [1], the IC50 is 45 µg/mL and the “[Max. safety concentration]” value was found to be 15 µg/mL. Besides, the “MIC S.agalactiae” value in the series on S.agalactiae is on record as 6,25 µg/ml.

For caprazamycins [CPZs], the MIC in series [4] is recorded as 3.13 µg/mL. Moreover, the toxicity in mice result with mice was “no significant toxicity”.

What is called IC50 is the concentration that gives 50% inhibition. High values mean a need for much substance, low ones inhibition by little substance. What is called EC50 is the concentration that produces a half-maximal response. Low values mean a more potent agent, high ones a less potent agent. The MIC is the least concentration at which growth counts as inhibited.
